Data on ten compounds can be found in ChEMBL document CHEMBL1201862, “PubChem BioAssay data set” (2004).

Test systems include 786-0; A498; A549; BT-549; CAKI-1; CCRF-CEM; EKVX; HCT-116; Hs-578T; MOLT-4; NCI/ADR-RES; OVCAR-4; OVCAR-5; OVCAR-8; PC-3; RXF 393; SF-268; T47D; U-251; UO-31.
Common to all, as to test: NCI anticancer screen, dose series, 48 h

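Five concentrations, 48 hours, 96-well plates. GI50: concentration for 50% inhibition of growth.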 Active and inactive are the calls of the source. No stated cut-off is given here; in the data, active = GI50 up to about 1.1 µM and inactive = higher.

Take `COc1ccccc1N1C(=O)CS(=O)(=O)C1c1cccc(Oc2ccccc2)c1` (stereo not given): the GI50 was 18.3 µM (inactive) with 786-0; 18.9 µM (inactive) in the test on A498; 18.9 µM (inactive) with A549; 16.9 µM (inactive) in the test with BT-549; 19.9 µM (inactive) in the test on CAKI-1; 25.8 µM (inactive) in the test with CCRF-CEM. The GI50 in the test on EKVX was 20.8 µM (inactive); in the test on HCT-116, 13.5 µM (inactive); in the test with Hs-578T, 19.1 µM (inactive); in the test on MOLT-4, 13.9 µM (inactive); in the test on NCI/ADR-RES, 16.9 µM (inactive); with OVCAR-4 it was 15 µM (inactive). The GI50 with OVCAR-5 was 26.2 µM (inactive); with OVCAR-8 it was 16.5 µM (inactive); in the test with PC-3, 12.2 µM (inactive); in the test with RXF 393, 16.9 µM (inactive); with SF-268, 15.8 µM (inactive); in the test on T47D, 15.6 µM (inactive). Also, the GI50 with U-251 was 16.1 µM (inactive); in the test with UO-31, 19.9 µM (inactive).
Take `O=C(O)[C@H]1NC[C@@H]2ON=C(Br)[C@@H]21`: the GI50 in the test with 786-0, in the test with A498, in the test on A549, with BT-549, in the test with CAKI-1 and in the test on CCRF-CEM was > 100 µM (inactive) each time. For the same compound, the GI50 in the test on EKVX, in the test with HCT-116, in the test on Hs-578T, in the test with MOLT-4, with NCI/ADR-RES and with OVCAR-4 was > 100 µM (inactive) in each case. Further, the GI50 in the test on OVCAR-5, in the test on OVCAR-8, in the test with PC-3, in the test with RXF 393, with SF-268 and in the test with T47D was > 100 µM (inactive) each time. Besides, the GI50 in the test with U-251 and in the test with UO-31 was > 100 µM (inactive) each time.
As for `COc1cc(/C=C2\C[C@H]3[C@@H]4CC=C5C=C(N6CCCC6)CC[C@]5(C)[C@H]4CC[C@]3(C)C2=O)cc(OC)c1OC`, the GI50 was 2.84 µM (inactive) in the test on 786-0; 8.79 µM (inactive) in the test on A498; 5.24 µM (inactive) in the test on A549; 2.12 µM (inactive) in the test on BT-549; 2.84 µM (inactive) in the test on CAKI-1; 2.82 µM (inactive) in the test on CCRF-CEM. Moreover, the GI50 in the test with EKVX is 3.75 µM (inactive); with HCT-116, 1.91 µM (inactive); in the test with Hs-578T it was 2.4 µM (inactive); with MOLT-4 it was 2.05 µM (inactive); with NCI/ADR-RES, 2.65 µM (inactive); with OVCAR-4, 1.75 µM (inactive). The GI50 in the test with OVCAR-5 was 7.1 µM (inactive); with OVCAR-8, 2.16 µM (inactive); in the test on PC-3, 3.12 µM (inactive); with RXF 393, 1.9 µM (inactive); in the test with SF-268, 2.23 µM (inactive); in the test with T47D, 1.94 µM (inactive). For the same compound, the GI50 in the test with U-251 was 1.96 µM (inactive); in the test on UO-31, 4.83 µM (inactive).
`CC(=O)O[C@H]1CC[C@@]2(C)C(=CC[C@H]3[C@@H]4C[C@H](N5CCOCC5)[C@H](OC(C)=O)[C@@]4(C)CC[C@@H]32)C1`: the GI50 in the test on 786-0, in the test with A498, with A549, in the test on BT-549, with CAKI-1 and in the test with CCRF-CEM was > 100 µM (inactive) in each case. Also, the GI50 in the test with EKVX, in the test on HCT-116, in the test with Hs-578T, in the test on MOLT-4, in the test with NCI/ADR-RES and with OVCAR-4 was > 100 µM (inactive) throughout. Besides, the GI50 in the test on OVCAR-5 is > 100 µM (inactive); with OVCAR-8, > 100 µM (inactive); in the test with PC-3, > 100 µM (inactive); in the test on RXF 393 it was 42.4 µM (inactive); with SF-268, > 100 µM (inactive); with T47D, > 100 µM (inactive). Further, the GI50 in the test with U-251 and in the test on UO-31 was > 100 µM (inactive) each time.
As to `COc1cccc(/C=C/c2ccnc3ccccc23)c1OC`, the GI50 is > 10 µM (inactive) in the test with 786-0; > 10 µM (inactive) in the test on A498; > 10 µM (inactive) in the test with A549; > 10 µM (inactive) with BT-549; > 10 µM (inactive) with CAKI-1; 4.6 µM (inactive) with CCRF-CEM. In addition, the GI50 with EKVX is 9.66 µM (inactive); with HCT-116, > 10 µM (inactive); with Hs-578T, > 10 µM (inactive); in the test on MOLT-4, 3.89 µM (inactive); in the test with NCI/ADR-RES it was 2.67 µM (inactive); in the test on OVCAR-4 it was > 10 µM (inactive). The GI50 in the test with OVCAR-5 was > 10 µM (inactive); with OVCAR-8, > 10 µM (inactive); in the test with PC-3, > 10 µM (inactive); in the test with RXF 393, > 10 µM (inactive); with SF-268, > 10 µM (inactive); in the test on T47D it was 8.17 µM (inactive). For the same compound, the GI50 in the test with U-251 and in the test with UO-31 was > 10 µM (inactive) in each case.
`CN(C)c1ccc(/C=C2\C[C@H]3[C@@H]4CCc5cc(OCCN6CCCC6)ccc5[C@H]4CC[C@]3(C)[C@H]2O)cc1`: the GI50 was 2.13 µM (inactive) in the test on 786-0; 17.8 µM (inactive) in the test on A498; 6.32 µM (inactive) in the test on A549; 16 µM (inactive) in the test on BT-549; 13.9 µM (inactive) in the test on CAKI-1; 2.46 µM (inactive) in the test on CCRF-CEM. For the same compound, the GI50 in the test with EKVX was 15 µM (inactive); with HCT-116 it was 2.71 µM (inactive); in the test on Hs-578T, 21.8 µM (inactive); in the test on MOLT-4 it was 9.48 µM (inactive); in the test on NCI/ADR-RES it was 19.3 µM (inactive); with OVCAR-4, 16.3 µM (inactive). Moreover, the GI50 in the test on OVCAR-5 is 14.7 µM (inactive); in the test on OVCAR-8 it was 6.32 µM (inactive); with PC-3, 13.8 µM (inactive); in the test with RXF 393, 13.7 µM (inactive); in the test with SF-268 it was 21.9 µM (inactive); in the test on T47D it was 23.3 µM (inactive). The GI50 in the test on U-251 is 3.75 µM (inactive); with UO-31, 5.65 µM (inactive).
Consider `CC(C)OC(=O)c1ccc(NCC2=CC(=O)C=CC2=O)cc1`, for which the GI50 is 13 µM (inactive) with 786-0; 27.2 µM (inactive) with A498; 44.3 µM (inactive) in the test on A549; 12.9 µM (inactive) in the test with BT-549; 3.43 µM (inactive) in the test on CAKI-1; 2.21 µM (inactive) with CCRF-CEM. Further, the GI50 was 17.3 µM (inactive) in the test with EKVX; 14.4 µM (inactive) in the test on HCT-116; 18.3 µM (inactive) with Hs-578T; 2.39 µM (inactive) in the test with MOLT-4; 13.5 µM (inactive) in the test with NCI/ADR-RES; 12.8 µM (inactive) in the test with OVCAR-4. Moreover, the GI50 with OVCAR-5 is 19.4 µM (inactive); in the test with OVCAR-8, 15.3 µM (inactive); with PC-3 it was 13.1 µM (inactive); in the test with RXF 393 it was 12.8 µM (inactive); in the test with SF-268, 12.3 µM (inactive); in the test with T47D it was 2.25 µM (inactive). For the same compound, the GI50 with U-251 was 16 µM (inactive); in the test on UO-31, 9.91 µM (inactive).
On to `Cc1nc2nc3c(ncn3COCCO)c(O)n2c1C(c1ccccc1)(c1ccccc1)c1ccccc1`, for which the GI50 was 17.1 µM (inactive) in the test on 786-0; 18.3 µM (inactive) with A498; 18.5 µM (inactive) in the test on A549; 0.6 µM (active) in the test with BT-549; 60 µM (inactive) in the test with CAKI-1; 13.2 µM (inactive) with CCRF-CEM. Moreover, the GI50 is 19.4 µM (inactive) with EKVX; 15.1 µM (inactive) in the test on HCT-116; 21.2 µM (inactive) in the test on Hs-578T; 8.2 µM (inactive) in the test with MOLT-4; 1.55 µM (inactive) with NCI/ADR-RES; 13.6 µM (inactive) in the test on OVCAR-4. Moreover, the GI50 is 18.7 µM (inactive) in the test on OVCAR-5; 14 µM (inactive) with OVCAR-8; 12.9 µM (inactive) with PC-3; 12.8 µM (inactive) in the test on RXF 393; 16 µM (inactive) with SF-268; 9.27 µM (inactive) in the test with T47D. In addition, the GI50 with U-251 is 14.1 µM (inactive); with UO-31, 30.3 µM (inactive).
Consider `CCOc1ccc2nc(NC(=O)/C(CC(=O)CC(C3=C(O)c4ccccc4CC3=O)c3ccccc3)=N\O)sc2c1` (stereo not given), for which the GI50 in the test with 786-0, with A498, in the test on A549, in the test on BT-549, with CAKI-1 and in the test on CCRF-CEM was > 100 µM (inactive) each time. Besides, the GI50 with EKVX, with HCT-116, with Hs-578T, in the test with MOLT-4, with NCI/ADR-RES and with OVCAR-4 was > 100 µM (inactive) each time. Further, the GI50 with OVCAR-5, in the test on OVCAR-8, in the test on PC-3, with RXF 393, in the test on SF-268 and in the test on T47D was > 100 µM (inactive) throughout. Besides, the GI50 with U-251 and in the test with UO-31 was > 100 µM (inactive) throughout.
For the compound `O=C(O)CCc1nc2c(n1-c1ccccc1)C(=O)c1ccccc1C2=O`, the GI50 in the test with 786-0, in the test on A498, with A549, in the test on BT-549, in the test with CAKI-1 and in the test on CCRF-CEM was > 100 µM (inactive) in each case. Besides, the GI50 with EKVX is > 100 µM (inactive); in the test with HCT-116 it was 50.2 µM (inactive); with Hs-578T, > 100 µM (inactive); in the test with MOLT-4, > 100 µM (inactive); in the test with NCI/ADR-RES it was > 100 µM (inactive); in the test on OVCAR-4 it was > 100 µM (inactive). The GI50 with OVCAR-5 was > 100 µM (inactive); in the test with OVCAR-8, > 100 µM (inactive); with PC-3, > 100 µM (inactive); in the test with RXF 393, > 100 µM (inactive); in the test on SF-268 it was > 100 µM (inactive); with T47D, 64.7 µM (inactive). In addition, the GI50 in the test on U-251 and in the test with UO-31 was > 100 µM (inactive) in each case.
